# Experimental data as given in BindingDB's records for doi:10.1016/j.ejmech.2019.111853 (Hangzhou Institute of Innovative Medicine, 2020).
# Tests used:
# [1] = Inhibition of CXCR2-mediated chemotaxis in mouse BAF3 cells
# [2] = Antagonist activity at CXCR2 in human neutrophils assessed as reduction in GRO-alpha mediated chemotaxis
IC50 [1] [nM],IC50 [2] [nM],SMILES
0.1,,CC[C@@H](Nc1c(Nc2cccc(C(=O)N3CCN4CCC[C@H]4C3)c2O)c(=O)c1=O)c1ccc(C)o1
,42,COC(=O)CSc1ccc(C(=O)Nc2ccc(F)cc2)cn1 [[5-(4-Fluoro-phenylcarbamoyl)-pyridin-2-ylsulfanyl]-acetic acid methyl ester]
